Eight compounds from US20250171465A1, “AKT INHIBITORS” (Stablix, Inc., priority 2023, published 2025) can be followed below.

SMILES strings stand for the structures.

Holding throughout (type): cell-based
In one experiment the test system is AKT. Briefly: AKT ubiquitination assay (TUBE pulldown, western blot). As to conditions: KU-19-19 cells, 3 uM of compound, 6 hrs. On the procedure:
For each assay condition. 5.0×10^6 KU-19-19 cells were seeded in 10 cm dish grown in RPMI (Invitrogen. Carlsbad. CA. USA) supplemented with 10% fetal bovine serum. Cells were incubated overnight at 37° C. in a humidified atmosphere containing 5% CO2. […]. Next day, media was removed and cells were rinsed with 0.1% FBS cell culture media. Then 10 mL of 0.1% FBS+RPMI containing 3 uM of compound was added to each plate and treated with compound for 6 hrs. Cells were washed 3× with PBS and placed on ice. 900 μL of lysis buffer (50 mM Tris-HCl pH 7.4, 150 mM NaCl. 1% NP-40, 1% Sodium deoxycholate. 2 mM EDTA, 10% Glycerol, 5 mM Iodoacetamide (dissolved in ddH2O, MCE, Cat #HY-34477), 1×HALT protease\phosphatase inhibitor (Pierce. Cat #78440), 1×PMSF (Sigma. Cat #93482-50ML-F), 5 mM 1.10 Phenanthroline (in DMSO, MCE, Cat #HY—W004544), 25 uM MG-132 (in DMSO) (MCE. Cat #HY-13259), 50 μM PR-619 (make it in DMSO) (MCE. Cat #HY-13814) and 1× Benzonase (Sigma. Cat #E8263) was added and incubated on ice for 3-5 min and then scraped and collected. Lysates were incubated on ice for 1 hr and vortexed every 15 minutes before spinning down at 14 000 g for 10 minutes. Supernatants were collected and flash frozen in Liquid nitrogen for 10 minutes and stored at −80 C until further used. Adjust volume of samples with lysis buffer to obtain 1 mg in total volume of 1 mL. Perform TUBES pulldown following manufacturer's procedure using TUBE1 (high capacity magnetic beads) (Cat #UM-0501M-1000. LifeSensors). Briefly, wash 150 μl beads per sample with 12× beads volume of PBST (0.1% Tweed-20) three times. Add 1 mL of protein lysate to beads and incubate for 4 hours rotating at 4 C. Wash 4× with 10× beads volume of lysis buffer and rotate for 3 minutes, then collect beads with magnet for 3 minutes before collecting buffer. Wash 1× with 5× beads volumes of PBS-T. Wash TUBEs with 100 μl wash buffer for 5 minutes on thermomixer set at 1400 rpm and 25 C. TUBE washing buffer/TUBE Elution buffer/TUBE Neutralization buffer (Cat #UM411. LifeSensors) Elute with 18 μl of TUBE elution buffer for 15 minutes on thermomixer set at 1400 rpm at 25 C, and then collect eluate and add 2 μl of neutralization buffer. Load 18 μl of pulldown sample and 10 μg of input samples onto gel for western blot using standard methods with following antibodies: AKT (pan) (C67E7) (CST. Cat #4691S). β-Actin antibody (Cat #A1978, sigma) (Dilution. 1:2000) Anti-rabbit IgG. HRP-linked Antibody (CST. Cat #7074S) (Dilution, 1:2000)
In general terms: In western blotting, separated proteins are transferred to a membrane and probed.

The target of a further experiment is T1, AKT1 E17 (Homo sapiens, UniProt P31749, E17K).
T1 construct: expressed in transfected cells; host or cells: KU-19-19
T1 sequence (P31749 whole entry E17K): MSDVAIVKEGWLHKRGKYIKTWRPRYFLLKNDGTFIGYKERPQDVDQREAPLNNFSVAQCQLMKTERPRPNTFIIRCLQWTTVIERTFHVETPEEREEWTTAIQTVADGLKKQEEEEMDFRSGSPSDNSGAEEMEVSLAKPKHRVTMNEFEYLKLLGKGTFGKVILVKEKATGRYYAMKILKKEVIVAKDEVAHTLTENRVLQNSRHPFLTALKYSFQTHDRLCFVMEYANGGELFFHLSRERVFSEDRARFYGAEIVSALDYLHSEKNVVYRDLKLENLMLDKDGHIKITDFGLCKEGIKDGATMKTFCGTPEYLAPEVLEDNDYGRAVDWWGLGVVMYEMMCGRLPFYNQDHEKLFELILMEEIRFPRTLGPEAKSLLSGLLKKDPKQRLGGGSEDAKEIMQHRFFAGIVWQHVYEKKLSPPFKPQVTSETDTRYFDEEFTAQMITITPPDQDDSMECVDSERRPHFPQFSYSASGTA
Briefly: AKT plasma membrane translocation assay (AKT1 E17K-SmBiT / LCK1-LgBiT luminescence). As to conditions: KU-19-19 cells transfected with AKT1E17K-SmBIT and LCK1-LgBiT, read up to 1 hr. As to the method:
AKT plasma membrane translocation assay
Seed 1.5×10^6 KU-19-19 cells in 10 cm dish. Transfect cells at 70% cell confluency with 5 ug AKTIE17K-SmBIT and 0.5 ug LCK1-LgBiT with Jet-Optimus transfection reagent. Incubate for 4-5 hours at 37c 5% CO2 TC incubator. Split and seed 10K cells in 40 ul media per well in 384 well plate and incubate over night at 37° C. CO2 free TC incubator. Add 10 ul of 5× Vivazine substrate (prepared in CO2 independent medium) to cells and shake palte to mix for 30 seconds. Read Luminescence for 100 minutes until signal is stable (1 read per minute). Add 50 nl/well of 3 uM compound stock to cells.

Another experiment relates to KU1919.1. Briefly: Cell Titer Glo (CTG) proliferation assay, KU1919. Particulars: Homo sapiens, KU-19-19; KU1919.1 cells, 72.0 hrs.; read-out: AVE CTG Proliferation KU1919.1 72.0 hrs. A digest of the protocol:
(§1)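 After overnight seeding at 37 °C, 5% CO2, cells were exposed to compound for 3 days. Viability read by CellTiter-Glo luminescence after 30 min at room temperature.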
Background: In ATP-based viability assays light output follows the ATP content of the culture.

The next experiment deals with MDAMB231.1. Briefly: Cell Titer Glo (CTG) proliferation assay, MDA-MB-231. As to conditions: Homo sapiens, MDA-MB-231; MDAMB231.1 cells, 72 hrs.; read-out: AVE CTG Proliferation MDAMB231.1 72 hrs. As to the method:
Seed cells in 40 μL of cell culture media into each well of 384-well cell culture plate, spin them at room temperature at 1,000 RPM for 1 minute and then transfer the plates into 37° C. 5% CO2 incubator overnight. Next day, treat cells with 40 nL of diluted compound and return to incubator. After compound treatment for 3 days, Add 30 μL of CellTiter-Glo reagent (Promega) into each well to be detected. Then place the plates at room temperature for 30 min followed by reading on EnVision. Inhibition activity calculated as % DMSO=100×(LumSample-Lum low control)/(Lum high control-Lum low control) where high control is from cells treated with 0.1% DMSO and Low control obtained from PBS only. Use XLFit (equation 201) to calculate IC50 (A+ ((B−A)/(1[…]((x/C)^D)))) where A: Bottom, B: Top, C: IC50, D: Slope.

The subject of another experiment is MDAMB468.1. Briefly: Cell Titer Glo (CTG) proliferation assay, MDA-MB-468. Particulars: Homo sapiens, MDA-MB-468; MDAMB468.1 cells, 72.0 hrs.; read-out: AVE CTG Proliferation MDAMB468.1 72.0 hrs. A digest of the protocol:
as §1

For the compound `CCOc1cc(OC)ccc1CNCC(=O)N1CCCC(c2cccc(C(=O)N[C@@H](C(=O)N3CCN(CC4CCN(CC(=O)N5CCN(CC[C@H](NC(=O)C6(N)CCN(c7ncnc8[nH]ccc78)CC6)c6ccc(Cl)cc6)CC5)CC4)CC3)C3CCCCC3)c2)C1` (some centres unmarked) [Compound I-46], the “Reduced AKT ubiquitination relative to PBM” value in the experiment on AKT is listed as “Yes”. Also, the “Reduced AKT1 E17 plasma membrane translocation relative to PBM” value on AKT1 E17 was “Yes”.

As to `NC1(C(=O)N[C@@H](CCN2CCN(C(=O)CN3CCC(OC4CCN(C(=O)[C@H](NC(=O)c5cccc(C6CN(C(=O)CNCc7ccc(F)cc7F)C6)c5)C5CCCCC5)CC4)CC3)CC2)c2ccc(Cl)cc2)CCN(c2ncnc3[nH]ccc23)CC1` [Compound I-242], the “Reduced AKT ubiquitination relative to PBM” value in the experiment on AKT is “Yes”. For the same compound, the IC50 was 0.5 to 1 µM with KU1919.1, 1 to 5 µM in the experiment with MDAMB231.1 and 1 to 5 µM with MDAMB468.1. Further, the “Reduced AKT1 E17 plasma membrane translocation relative to PBM” value at AKT1 E17 is on record as “Yes”.

For `NC1(C(=O)N[C@@H](CCN2CCN(C(=O)CN3CCC(OC4CCN(C(=O)[C@H](NC(=O)c5cccc(C6CCCN(C(=O)C7CC7)C6)c5)C5CCCCC5)CC4)CC3)CC2)c2ccc(Cl)cc2)CCN(c2ncnc3[nH]ccc23)CC1` (some centres unmarked) [Compound I-254], the “Reduced AKT ubiquitination relative to PBM” value in the experiment on AKT is listed as “Yes”. Besides, the IC50 in the experiment on KU1919.1, in the experiment with MDAMB231.1 and in the experiment with MDAMB468.1 was 1 to 5 µM throughout. In addition, the “Reduced AKT1 E17 plasma membrane translocation relative to PBM” value on AKT1 E17 was “Yes”.

`CCc1cccc(-c2cnc(C(=O)N3CCN(CC4CCN(CC(=O)NCCNC[C@@H](C(=O)N5CCN(c6ncnc7c6[C@H](C)C[C@H]7O)CC5)c5ccc(Cl)cc5)CC4)CC3)c(NC(=O)OC(C)(C)C)c2)c1` [Compound I-306]: the IC50 in the experiment with KU1919.1, with MDAMB231.1 and in the experiment on MDAMB468.1 was 1 to 5 µM in each case.

For the compound `CC(C)(C)OC(=O)N[C@@H](C(=O)N1CCN(CC2CCN(CC(=O)N3CCN(CC[C@H](NC(=O)C4(N)CCN(c5ncnc6[nH]ccc56)CC4)c4ccc(Cl)cc4)CC3)CC2)CC1)C1CCCCC1` [Compound I-310], the IC50 in the experiment on KU1919.1 was 1 to 5 µM; in the experiment on MDAMB231.1, 5 to 10 µM; in the experiment with MDAMB468.1, 1 to 5 µM.

For `CC(C)(C)OC(=O)N[C@@H](C(=O)N1CCC(OC2CCN(CC(=O)N3CCN(CC[C@H](NC(=O)C4(N)CCN(c5ncnc6[nH]ccc56)CC4)c4ccc(Cl)cc4)CC3)CC2)CC1)C1CCCCC1` [Compound I-312], in the experiment on AKT, the “Reduced AKT ubiquitination relative to PBM” value is “Yes”. Also, the IC50 in the experiment with KU1919.1, in the experiment with MDAMB231.1 and in the experiment with MDAMB468.1 was 1 to 5 µM each time. In addition, the “Reduced AKT1 E17 plasma membrane translocation relative to PBM” value on AKT1 E17 is reported as “Yes”.

With `CC(C)(C)OC(=O)N1CCC(OC2CCN(CC(=O)N3CCN(CC[C@H](NC(=O)C4(N)CCN(c5ncnc6[nH]ccc56)CC4)c4ccc(Cl)cc4)CC3)CC2)CC1` [Compound I-315], the figures for the IC50 in the experiment on KU1919.1, in the experiment on MDAMB231.1 and in the experiment with MDAMB468.1 were 1 to 5 µM, more than 10 µM and 1 to 5 µM, respectively.

Consider `CC(C)NC[C@@H](C(=O)N1CCN(c2ncnc3c2[C@H](C)C[C@H]3O)CC1)c1ccc(Cl)cc1` [GDC-0068, Ipatasertib, reference compound], for which the IC50 in the experiment on KU1919.1, in the experiment with MDAMB231.1 and with MDAMB468.1 was more than 10 µM in each case.
